Assay results from PubChem BioAssay AID1963832 (Molecular Pharmacology Branch, DTP, NCI, 2024).

Tested on: 885724-159-R-J1-PDC complex spheroid viability
Experiment: Anticancer human tumor 885724-159-R-J1-PDC patient-derived pancreatic adenocarcinoma cell line growth inhibition [POLQ]
Settings: for IC50: curve of first compound; for viability, T/C: stronger effect = lower value
Outline: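 Growth inhibition in 3D: complex spheroids (tumor PDC, HUVEC, MSC) treated with POLQ inhibitor combinations; where Cmax unknown, highest tested concentration 10 microM, except SN-38 at 1 microM.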

[1] = second compound 0.0316 µM, first compound 0.0316 µM
[2] = second compound 0.0316 µM, first compound 0.1 µM
[3] = second compound 0.0316 µM, first compound 0.316 µM
[4] = second compound 0.0316 µM, first compound 1 µM
[5] = second compound 0.0316 µM, first compound 3.16 µM
[6] = second compound 0.0316 µM, first compound 10 µM
[7] = second compound 0.1 µM, first compound 0.0316 µM
[8] = second compound 0.1 µM, first compound 0.1 µM
[9] = second compound 0.1 µM, first compound 0.316 µM
[10] = second compound 0.1 µM, first compound 1 µM
[11] = second compound 0.1 µM, first compound 3.16 µM
[12] = second compound 0.1 µM, first compound 10 µM
[13] = second compound 0.316 µM, first compound 0.0316 µM
[14] = second compound 0.316 µM, first compound 0.1 µM
[15] = second compound 0.316 µM, first compound 0.316 µM
[16] = second compound 0.316 µM, first compound 1 µM
[17] = second compound 0.316 µM, first compound 3.16 µM
[18] = second compound 0.316 µM, first compound 10 µM
[19] = second compound 1 µM, first compound 0.0316 µM
[20] = second compound 1 µM, first compound 0.1 µM
[21] = second compound 1 µM, first compound 0.316 µM
[22] = second compound 1 µM, first compound 1 µM
[23] = second compound 1 µM, first compound 3.16 µM
[24] = second compound 1 µM, first compound 10 µM
[25] = second compound 3.16 µM, first compound 0.0316 µM
[26] = second compound 3.16 µM, first compound 0.1 µM
[27] = second compound 3.16 µM, first compound 0.316 µM
[28] = second compound 3.16 µM, first compound 1 µM
[29] = second compound 3.16 µM, first compound 3.16 µM
[30] = second compound 3.16 µM, first compound 10 µM
[31] = second compound 10 µM, first compound 0.0316 µM
[32] = second compound 10 µM, first compound 0.1 µM
[33] = second compound 10 µM, first compound 0.316 µM
[34] = second compound 10 µM, first compound 1 µM
[35] = second compound 10 µM, first compound 3.16 µM
[36] = second compound 10 µM, first compound 10 µM
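Also: spheroids exposed to compounds for 7 days.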

Structure (SMILES): C#Cc1c(F)ccc2cc(O)cc(-c3ncc4c(N5CC6CCC(C5)N6)nc(OCC56CCCN5CC(F)C6)nc4c3F)c12 (centres undefined) + Nc1ccc(C#CCN(C(=O)Cc2ncc(C(F)(F)F)cc2C(F)(F)F)c2ccc(F)cc2)nn1
- IC50 (second compound 0.0316 µM): 2.19 µM
- IC50 (second compound 0.1 µM): 3.2 µM
- IC50 (second compound 0.316 µM): 2.78 µM
- IC50 (second compound 1 µM): 2.95 µM
- IC50 (second compound 3.16 µM): 3.04 µM
- IC50 (second compound 10 µM): 3.03 µM
- viability, T/C [1]: 90.8%
- viability, T/C [2]: 92.6%
- viability, T/C [3]: 90.7%
- viability, T/C [4]: 64.2%
- viability, T/C [5]: 44.2%
- viability, T/C [6]: 23.8%
- viability, T/C [7]: 95.9%
- viability, T/C [8]: 100%
- viability, T/C [9]: 93.9%
- viability, T/C [10]: 73%
- viability, T/C [11]: 52.1%
- viability, T/C [12]: 25.3%
- viability, T/C [13]: 116%
- viability, T/C [14]: 88.4%
- viability, T/C [15]: 84.3%
- viability, T/C [16]: 71.2%
- viability, T/C [17]: 50.6%
- viability, T/C [18]: 23.4%
- viability, T/C [19]: 89.9%
- viability, T/C [20]: 96.6%
- viability, T/C [21]: 86.7%
- viability, T/C [22]: 71.3%
- viability, T/C [23]: 49.6%
- viability, T/C [24]: 24.2%
- viability, T/C [25]: 85.3%
- viability, T/C [26]: 87.2%
- viability, T/C [27]: 89.1%
- viability, T/C [28]: 75.9%
- viability, T/C [29]: 49.5%
- viability, T/C [30]: 24.5%
- viability, T/C [31]: 98.6%
- viability, T/C [32]: 89%
- viability, T/C [33]: 96.8%
- viability, T/C [34]: 72.6%
- viability, T/C [35]: 50.4%
- viability, T/C [36]: 22.9%

Structure (SMILES): O=C(Nc1ccc(O)c(NS(=O)(=O)c2ccc(F)cc2)c1)c1ccc(-c2ccccc2)cc1 + Nc1ccc(C#CCN(C(=O)Cc2ncc(C(F)(F)F)cc2C(F)(F)F)c2ccc(F)cc2)nn1
- IC50 (second compound 0.0316 µM): > 10 µM
- IC50 (second compound 0.1 µM): > 10 µM
- IC50 (second compound 0.316 µM): > 10 µM
- IC50 (second compound 1 µM): > 10 µM
- IC50 (second compound 3.16 µM): > 10 µM
- IC50 (second compound 10 µM): > 10 µM
- viability, T/C [1]: 97.8%
- viability, T/C [2]: 94.2%
- viability, T/C [3]: 97.4%
- viability, T/C [4]: 97.6%
- viability, T/C [5]: 110%
- viability, T/C [6]: 93.3%
- viability, T/C [7]: 102%
- viability, T/C [8]: 95.3%
- viability, T/C [9]: 112%
- viability, T/C [10]: 101%
- viability, T/C [11]: 111%
- viability, T/C [12]: 96.4%
- viability, T/C [13]: 103%
- viability, T/C [14]: 93.2%
- viability, T/C [15]: 94.7%
- viability, T/C [16]: 103%
- viability, T/C [17]: 110%
- viability, T/C [18]: 93.4%
- viability, T/C [19]: 110%
- viability, T/C [20]: 99.4%
- viability, T/C [21]: 78.1%
- viability, T/C [22]: 98.3%
- viability, T/C [23]: 101%
- viability, T/C [24]: 92.1%
- viability, T/C [25]: 97.1%
- viability, T/C [26]: 91%
- viability, T/C [27]: 87.3%
- viability, T/C [28]: 104%
- viability, T/C [29]: 108%
- viability, T/C [30]: 95.7%
- viability, T/C [31]: 91.2%
- viability, T/C [32]: 98.4%
- viability, T/C [33]: 103%
- viability, T/C [34]: 98.6%
- viability, T/C [35]: 108%
- viability, T/C [36]: 86.4%
